Experimental data from BindingDB's records for doi:10.1021/jm00058a012 (University of Arizona, 1993).
Bridge positions count the residues as written; N and C are the ends. Square brackets hold non-standard residues; d marks the D form. Peptide text beside a SMILES is read from it. Pen = CC(C)(S)[C@H](N)C(=O)O

Experiment: Inhibition of [3H]DPDPE binding to delta opioid receptor of guinea pig brain homogenate

| Compound | IC50 [nM] |
| --- | --- |
| CC[C@H](C)[C@@H]1NC(=O)[C@H](CCCN=C(N)N)NC(=O)[C@H](CCCN=C(N)N)NC(=O)[C@@H](NC(=O)[C@H](Cc2ccccc2)NC(=O)CNC(=O)CNC(=O)[C@@H](N)Cc2ccc(O)cc2)CSSC[C@@H](C(=O)N[C@@H](CCCN=C(N)N)C(=O)N[C@@H](CCCCN)C(N)=O)NC1=O [Tyr-Gly-Gly-Phe-c(Cys-Arg-Arg-Ile-Cys)-Arg-lys] (H-YGGFCRRICRK-NH2; disulfide 5-9) | 18 |

Experiment: as above
Remark: another data set of the same source

| Compound | IC50 [nM] |
| --- | --- |
| CC[C@H](C)[C@H](NC(=O)[C@H](CCCN=C(N)N)NC(=O)[C@H](CCCN=C(N)N)NC(=O)[C@H](CC(C)C)NC(=O)[C@H](Cc1ccccc1)NC(=O)CNC(=O)CNC(=O)[C@@H](N)Cc1ccc(O)cc1)C(=O)N[C@@H](CCCN=C(N)N)C(=O)N1CCC[C@H]1C(=O)N[C@@H](CCCCN)C(=O)N[C@@H](CC(C)C)C(=O)N[C@@H](CCCCN)C(=O)O [Dynorphin A (1-13)] | 4.1 |
| CC[C@H](C)[C@@H]1NC(=O)[C@H](CCCNC(=N)N)NC(=O)[C@H](CCCNC(=N)N)NC(=O)[C@@H](NC(=O)[C@H](Cc2ccccc2)NC(=O)CNC(=O)CNC(=O)[C@@H](N)Cc2ccccc2)CSSC[C@@H](C(N)=O)NC(=O)[C@@H]2CCCN2C(=O)[C@H](CCCNC(=N)N)NC1=O [Phe-Gly-Gly-Phe-c(Cys-Arg-Arg-Ile-Arg-Pro-Cys)] (H-FGGFCRRIRPC-NH2; disulfide 5-11) | 389 |
| CC[C@H](C)[C@@H]1NC(=O)[C@H](CCCN=C(N)N)NC(=O)[C@H](CCCN=C(N)N)NC(=O)[C@@H](NC(=O)[C@H](Cc2ccccc2)NC(=O)CNC(=O)[C@@H](C)NC(=O)[C@@H](N)Cc2ccc(O)cc2)CSSC[C@@H](C(N)=O)NC(=O)[C@@H]2CCCN2C(=O)[C@H](CCCN=C(N)N)NC1=O [Tyr-(D-ala)-Gly-Phe-c(Cys-Arg-Arg-Ile-Arg-Pro-Cys)] | 107 |
| CC[C@H](C)[C@@H]1NC(=O)[C@H](CCCN=C(N)N)NC(=O)[C@H](CCCN=C(N)N)NC(=O)[C@@H](NC(=O)[C@@H]2Cc3ccccc3CN2C(=O)CNC(=O)CNC(=O)[C@@H](N)Cc2ccc(O)cc2)CSSC[C@@H](C(=O)O)NC(=O)[C@@H]2CCCN2C(=O)[C@H](CCCN=C(N)N)NC1=O [Tyr-Gly-Gly-(L-Tic)-c(Cys-Arg-Arg-Ile-Arg-Pro-Cys)] | 181 |
| CC(C)C[C@H](NC(=O)[C@H](Cc1ccccc1)NC(=O)CNC(=O)CNC(=O)[C@@H](N)Cc1ccc(O)cc1)C(=O)N[C@@H](CCCNC(=N)N)C(=O)N[C@@H](CCCNC(=N)N)C(=O)N[C@@H]1CSSC[C@H](C(=O)N[C@@H](CCCCN)C(N)=O)NC(=O)[C@H](CCCCN)NC(=O)[C@@H]2CCCN2C(=O)[C@H](CCCNC(=N)N)NC1=O [Tyr-Gly-Gly-Phe-Leu-Arg-Arg-c((D-Cys)-Arg-Pro-Lys-(D-Cys))-Lys] | 6.5 |
| CC(C)C[C@H](NC(=O)[C@H](Cc1ccccc1)NC(=O)CNC(=O)CNC(=O)[C@@H](N)Cc1ccc(O)cc1)C(=O)N[C@@H](CCCN=C(N)N)C(=O)N[C@@H](CCCN=C(N)N)C(=O)N[C@H]1CSSC[C@H](C(N)=O)NC(=O)[C@H](CC(C)C)NC(=O)[C@H](CCCCN)NC(=O)[C@@H]2CCCN2C(=O)[C@H](CCCN=C(N)N)NC1=O [Tyr-Gly-Gly-Phe-Leu-Arg-Arg-c(Cys-Arg-Pro-Lys-Leu-Cys)] | 1.9 |
| CC[C@H](C)[C@@H]1NC(=O)[C@H](CCCN=C(N)N)NC(=O)[C@H](CCCN=C(N)N)NC(=O)[C@@H](NC(=O)[C@H](Cc2ccccc2)NC(=O)CNC(=O)CNC(=O)[C@@H](N)Cc2ccc(O)cc2)C(C)(C)SSC[C@@H](C(N)=O)NC(=O)[C@@H]2CCCN2C(=O)[C@H](CCCN=C(N)N)NC1=O [Tyr-Gly-Gly-Phe-c((L-Pen)-Arg-Arg-Ile-Arg-Pro-Cys)] (H-YGGF[Pen]RRIRPC-NH2; disulfide 5-11) | 86 |
| CC[C@H](C)[C@@H]1NC(=O)[C@H](CCCNC(=N)N)NC(=O)[C@H](CCCNC(=N)N)NC(=O)[C@@H](NC(=O)[C@H](Cc2ccccc2)NC(=O)CNC(=O)CNC(=O)[C@@H](N)Cc2ccc(O)cc2)CSSC[C@@H](C(N)=O)NC(=O)[C@H](CC(C)C)NC(=O)[C@H](CCCCN)NC(=O)[C@H]2CCCN2C(=O)[C@H](CCCNC(=N)N)NC1=O [Tyr-Gly-Gly-Phe-c(Cys-Arg-Arg-Ile-Arg-(D-Pro)-Lys-Leu-Cys)] | 9.6 |
| CC[C@H](C)[C@@H]1NC(=O)[C@H](CCCN=C(N)N)NC(=O)[C@H](CCCN=C(N)N)NC(=O)[C@@H](NC(=O)[C@H](Cc2ccccc2)NC(=O)CNC(=O)CNC(=O)[C@@H](N)Cc2ccc(O)cc2)CSSC[C@@H](C(=O)N[C@@H](CCCCN)C(N)=O)NC(=O)[C@H](CCCN=C(N)N)NC1=O [Tyr-Gly-Gly-Phe-c(Cys-Arg-Arg-Ile-Arg-Cys)-lys] (H-YGGFCRRIRCK-NH2; disulfide 5-10) | 83 |
| CC[C@H](C)[C@@H]1NC(=O)[C@H](CCCN=C(N)N)NC(=O)[C@H](CCCN=C(N)N)NC(=O)[C@@H](NC(=O)[C@H](Cc2ccccc2)NC(=O)CNC(=O)CNC(=O)[C@@H](N)Cc2ccc(O)cc2)CSSC[C@@H](C(=O)N2CCC[C@H]2C(=O)N[C@@H](CCCCN)C(N)=O)NC1=O [Tyr-Gly-Gly-Phe-c(Cys-Arg-Arg-Ile-Cys)-Pro-lys] (H-YGGFCRRICPK-NH2; disulfide 5-9) | 31 |
| CC[C@H](C)[C@@H]1NC(=O)[C@H](CCCNC(=N)N)NC(=O)[C@@H](NC(=O)[C@H](CC(C)C)NC(=O)[C@H](Cc2ccccc2)NC(=O)CNC(=O)CNC(=O)[C@@H](N)Cc2ccc(O)cc2)CSSC[C@@H](C(=O)N[C@@H](CCCCN)C(N)=O)NC(=O)[C@H](CCCNC(=N)N)NC1=O [Tyr-Gly-Gly-Phe-leu-c(Cys-Arg-Ile-Arg-Cys)-lys] (H-YGGFLCRIRCK-NH2; disulfide 6-10) | 0.475 |
